Here are results for 24 molecules from ChEMBL document CHEMBL4354815, “Fibrinolysis Inhibitors: Potential Drugs for the Treatment and Prevention of Bleeding” (J Med Chem, 2020).

One may read the Ki as a measure of affinity in units of concentration, obtained from inhibition or displacement. A higher Ki goes with lower affinity. The IC50 is the concentration that inhibits the measured activity by half.

Test [1] addresses T1, Plasma kallikrein (Homo sapiens, UniProt P03952). Briefly: Inhibition of human plasma kallikrein using S2302 as substrate after 10 mins by UV/Vis photometry.
Test [2] has as its target T2, Plasminogen (Homo sapiens, UniProt P00747). Description: Inhibition of human plasmin using tosyl-Gly-Pro-Lys-pNA as substrate after 10 mins by UV/Vis photometry.
The test system of the next test is Plasma. Briefly: Anti-fibrinolytic activity in 5% human plasma in presence of fibrinogen by spectrophotometric method. It is filed as functional, cell-free.
Test [3] is described as follows: Inhibition of human urinary kallikrein using H-D-Val-Leu-Arg-pNA as substrate.
The target of a further test is T3, Coagulation factor XII (Homo sapiens, UniProt P00748).
T3 sequence (P00748 whole entry): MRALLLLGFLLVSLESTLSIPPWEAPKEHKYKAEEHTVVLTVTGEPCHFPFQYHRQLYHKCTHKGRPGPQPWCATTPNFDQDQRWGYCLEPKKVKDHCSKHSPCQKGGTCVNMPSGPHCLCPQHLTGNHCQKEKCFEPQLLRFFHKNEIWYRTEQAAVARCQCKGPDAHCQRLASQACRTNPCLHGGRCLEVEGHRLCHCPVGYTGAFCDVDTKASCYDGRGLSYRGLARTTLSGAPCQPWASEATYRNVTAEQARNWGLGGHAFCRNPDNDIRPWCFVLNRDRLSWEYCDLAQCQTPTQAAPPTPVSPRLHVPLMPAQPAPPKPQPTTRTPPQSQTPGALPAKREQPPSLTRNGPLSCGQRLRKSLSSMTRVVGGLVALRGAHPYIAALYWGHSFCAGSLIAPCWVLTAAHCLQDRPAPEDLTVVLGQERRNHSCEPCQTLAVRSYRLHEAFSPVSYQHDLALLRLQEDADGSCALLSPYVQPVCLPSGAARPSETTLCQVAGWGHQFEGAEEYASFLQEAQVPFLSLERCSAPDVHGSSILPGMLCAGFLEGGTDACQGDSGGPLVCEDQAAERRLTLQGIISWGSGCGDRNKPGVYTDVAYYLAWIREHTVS
Briefly: Inhibition of human factor 12a using CHA-Gly-Arg- pNA as substrate.

Test [4] has as its target Tissue-type plasminogen activator (Homo sapiens, UniProt P00750). Briefly: Inhibition of human tissue-type plasminogen activator using Mes-d-Cha- Gly-Arg-pNA as substrate.
The next test has as its target Coagulation factor X (Homo sapiens, UniProt P00742). Description: Inhibition of human factor 10a using MeOCO-d-Cha-Gly-Arg-pNA as substrate.
Test [5] has as its target T4, Complement C1s subcomponent (Homo sapiens, UniProt P09871).
T4 sequence (P09871 whole entry): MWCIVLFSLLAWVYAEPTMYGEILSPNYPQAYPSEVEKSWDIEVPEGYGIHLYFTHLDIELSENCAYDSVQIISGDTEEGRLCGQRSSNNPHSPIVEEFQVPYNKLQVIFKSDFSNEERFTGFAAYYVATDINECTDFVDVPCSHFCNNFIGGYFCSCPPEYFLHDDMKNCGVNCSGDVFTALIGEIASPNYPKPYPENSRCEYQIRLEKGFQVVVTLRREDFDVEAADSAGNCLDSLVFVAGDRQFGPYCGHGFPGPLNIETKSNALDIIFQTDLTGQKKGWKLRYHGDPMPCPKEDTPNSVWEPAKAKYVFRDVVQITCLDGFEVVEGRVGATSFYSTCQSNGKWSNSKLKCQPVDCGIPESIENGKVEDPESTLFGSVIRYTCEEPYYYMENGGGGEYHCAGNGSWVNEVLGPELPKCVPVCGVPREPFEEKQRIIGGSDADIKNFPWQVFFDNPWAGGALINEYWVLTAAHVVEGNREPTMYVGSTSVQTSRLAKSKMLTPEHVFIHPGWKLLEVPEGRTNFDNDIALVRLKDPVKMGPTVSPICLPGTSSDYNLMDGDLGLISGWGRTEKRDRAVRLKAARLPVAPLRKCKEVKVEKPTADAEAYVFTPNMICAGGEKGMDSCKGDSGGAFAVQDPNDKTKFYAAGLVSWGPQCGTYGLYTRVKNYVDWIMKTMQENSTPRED
Briefly: Inhibition of human Complement C1s subcomponent using Val-Ser-Arg-pNA as substrate.

In test [6] the target is T5, Complement C1r subcomponent (Homo sapiens, UniProt P00736).
T5 sequence (P00736 whole entry): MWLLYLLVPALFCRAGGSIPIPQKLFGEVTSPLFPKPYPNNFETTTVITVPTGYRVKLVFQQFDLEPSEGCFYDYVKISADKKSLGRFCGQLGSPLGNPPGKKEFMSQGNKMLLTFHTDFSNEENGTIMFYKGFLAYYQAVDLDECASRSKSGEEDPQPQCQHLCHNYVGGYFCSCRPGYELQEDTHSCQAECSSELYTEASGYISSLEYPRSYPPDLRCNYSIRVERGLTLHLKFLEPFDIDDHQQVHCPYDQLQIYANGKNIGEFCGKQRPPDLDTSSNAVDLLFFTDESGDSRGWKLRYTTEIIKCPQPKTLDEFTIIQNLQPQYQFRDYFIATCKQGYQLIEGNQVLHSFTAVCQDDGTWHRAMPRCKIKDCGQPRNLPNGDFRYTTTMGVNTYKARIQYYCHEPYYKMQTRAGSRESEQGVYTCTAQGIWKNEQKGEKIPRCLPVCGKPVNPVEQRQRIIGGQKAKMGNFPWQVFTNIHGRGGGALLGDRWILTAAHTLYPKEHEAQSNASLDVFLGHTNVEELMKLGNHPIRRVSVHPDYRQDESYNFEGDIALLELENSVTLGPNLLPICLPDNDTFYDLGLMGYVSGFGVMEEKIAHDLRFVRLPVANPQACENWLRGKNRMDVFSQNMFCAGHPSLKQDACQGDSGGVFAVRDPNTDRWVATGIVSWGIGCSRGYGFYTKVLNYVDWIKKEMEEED
Briefly: Inhibition of human Complement C1r subcomponent using Val-Ser-Arg-pNA as substrate.

Test [7] deals with Vitamin K-dependent protein C (Homo sapiens, UniProt P04070). Briefly: Inhibition of human activated protein […] C using H-D-Lys(Cbo)-Pro-Arg-pNA as substrate.
The next test addresses Prothrombin (Homo sapiens, UniProt P00734). Description: Inhibition of human factor 2a using Mes-d-Cha-Gly-Arg-pNA as substrate.
Test [8] deals with T2, Plasminogen. Description: Inhibition of human plasmin preincubated for 15 mins followed by MeOSuc-Ala-Phe-Lys-AMC substrate addition and measured after 30 mins by fluorescence method.
For a further test, the target named is Coagulation factor XI (Homo sapiens, UniProt P03951). Description: Inhibition of human factor 11a preincubated for 15 mins followed by Boc-Glu (OBzl) -Ala-Arg-AMC and measured after 30 mins by fluorescence method.
Test [9] addresses T2, Plasminogen. Briefly: Inhibition of microplasmin (unknown origin) expressed in Pichia pastoris preincubated for 10 mins followed by S2251 substrate addition.
Test [10] deals with T1, Plasma kallikrein. Briefly: Inhibition of human plasma kallikrein preincubated for 15 mins followed by H-Pro-Phe-Arg-AMC substrate addition and measured after 30 mins by fluorescence method.
Test [11] has as its target T2, Plasminogen. Briefly: Inhibition of plasmin (unknown origin) assessed as reduction in amidolytic activity using S-2251 as the substrate after 4 mins.
Test [12] addresses T2, Plasminogen. Briefly: Inhibition of plasmin (unknown origin).
The target in test [13] is Urokinase-type plasminogen activator (Homo sapiens, UniProt P00749). Description: Inhibition of urokinase-type plasminogen activator (unknown origin).

T2 sequence (P00747 97-580 limits assumed): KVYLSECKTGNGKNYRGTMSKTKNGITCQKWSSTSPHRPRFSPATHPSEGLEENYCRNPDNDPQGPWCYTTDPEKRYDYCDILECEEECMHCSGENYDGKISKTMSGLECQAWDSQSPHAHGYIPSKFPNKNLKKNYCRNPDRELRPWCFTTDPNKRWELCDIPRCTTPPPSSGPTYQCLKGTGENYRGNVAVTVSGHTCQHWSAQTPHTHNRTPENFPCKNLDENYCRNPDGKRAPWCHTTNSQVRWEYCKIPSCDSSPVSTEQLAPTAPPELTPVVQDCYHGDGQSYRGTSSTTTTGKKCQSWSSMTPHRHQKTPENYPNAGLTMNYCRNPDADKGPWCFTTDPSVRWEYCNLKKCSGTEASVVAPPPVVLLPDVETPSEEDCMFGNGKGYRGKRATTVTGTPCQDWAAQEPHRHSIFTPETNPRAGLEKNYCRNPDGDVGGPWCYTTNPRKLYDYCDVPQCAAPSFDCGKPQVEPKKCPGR
T2 sequence (P00747 581-810 limits assumed): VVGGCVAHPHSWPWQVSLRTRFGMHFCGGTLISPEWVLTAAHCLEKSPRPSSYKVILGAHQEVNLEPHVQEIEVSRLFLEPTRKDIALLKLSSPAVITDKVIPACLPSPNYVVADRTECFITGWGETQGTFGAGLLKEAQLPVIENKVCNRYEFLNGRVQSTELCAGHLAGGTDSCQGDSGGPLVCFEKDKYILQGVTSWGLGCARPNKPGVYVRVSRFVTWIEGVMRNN
T1 sequence (P03952 20-390 limits assumed): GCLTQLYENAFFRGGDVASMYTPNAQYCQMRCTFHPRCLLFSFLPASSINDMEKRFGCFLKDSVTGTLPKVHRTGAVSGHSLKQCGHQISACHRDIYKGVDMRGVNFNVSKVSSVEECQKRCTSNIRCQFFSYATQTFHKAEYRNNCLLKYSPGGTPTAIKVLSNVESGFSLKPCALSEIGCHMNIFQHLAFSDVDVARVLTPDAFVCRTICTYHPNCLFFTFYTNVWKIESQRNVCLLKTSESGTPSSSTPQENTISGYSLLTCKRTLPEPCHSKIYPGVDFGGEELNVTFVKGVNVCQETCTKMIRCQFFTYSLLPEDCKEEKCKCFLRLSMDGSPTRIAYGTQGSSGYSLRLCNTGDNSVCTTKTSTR
T1 sequence (P03952 391-638 limits assumed): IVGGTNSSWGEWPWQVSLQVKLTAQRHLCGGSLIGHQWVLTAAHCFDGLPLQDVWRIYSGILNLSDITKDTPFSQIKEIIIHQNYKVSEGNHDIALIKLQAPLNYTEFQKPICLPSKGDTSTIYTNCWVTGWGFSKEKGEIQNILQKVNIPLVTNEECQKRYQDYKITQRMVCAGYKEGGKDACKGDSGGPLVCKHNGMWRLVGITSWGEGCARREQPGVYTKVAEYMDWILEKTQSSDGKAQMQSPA
Coagulation factor XI, sequence (P03951 19-387 limits assumed): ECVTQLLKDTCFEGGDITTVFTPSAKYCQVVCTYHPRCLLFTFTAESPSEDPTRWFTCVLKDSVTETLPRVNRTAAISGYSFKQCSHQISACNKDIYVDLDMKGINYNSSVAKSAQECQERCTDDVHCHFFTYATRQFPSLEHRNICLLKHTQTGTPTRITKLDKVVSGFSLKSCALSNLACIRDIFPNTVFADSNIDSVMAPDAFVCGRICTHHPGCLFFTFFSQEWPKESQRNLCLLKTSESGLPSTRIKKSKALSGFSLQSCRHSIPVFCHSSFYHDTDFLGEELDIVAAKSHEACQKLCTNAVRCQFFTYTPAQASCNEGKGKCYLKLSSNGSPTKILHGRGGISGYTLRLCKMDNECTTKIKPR
Coagulation factor XI, sequence (P03951 388-625 limits assumed): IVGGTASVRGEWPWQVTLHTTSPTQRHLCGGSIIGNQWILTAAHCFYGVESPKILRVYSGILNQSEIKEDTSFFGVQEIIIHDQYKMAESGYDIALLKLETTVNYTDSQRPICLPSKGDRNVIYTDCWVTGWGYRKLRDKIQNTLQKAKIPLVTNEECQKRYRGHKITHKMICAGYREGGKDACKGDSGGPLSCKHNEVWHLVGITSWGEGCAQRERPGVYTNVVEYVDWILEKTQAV
Tissue-type plasminogen activator, sequence (P00750 whole entry): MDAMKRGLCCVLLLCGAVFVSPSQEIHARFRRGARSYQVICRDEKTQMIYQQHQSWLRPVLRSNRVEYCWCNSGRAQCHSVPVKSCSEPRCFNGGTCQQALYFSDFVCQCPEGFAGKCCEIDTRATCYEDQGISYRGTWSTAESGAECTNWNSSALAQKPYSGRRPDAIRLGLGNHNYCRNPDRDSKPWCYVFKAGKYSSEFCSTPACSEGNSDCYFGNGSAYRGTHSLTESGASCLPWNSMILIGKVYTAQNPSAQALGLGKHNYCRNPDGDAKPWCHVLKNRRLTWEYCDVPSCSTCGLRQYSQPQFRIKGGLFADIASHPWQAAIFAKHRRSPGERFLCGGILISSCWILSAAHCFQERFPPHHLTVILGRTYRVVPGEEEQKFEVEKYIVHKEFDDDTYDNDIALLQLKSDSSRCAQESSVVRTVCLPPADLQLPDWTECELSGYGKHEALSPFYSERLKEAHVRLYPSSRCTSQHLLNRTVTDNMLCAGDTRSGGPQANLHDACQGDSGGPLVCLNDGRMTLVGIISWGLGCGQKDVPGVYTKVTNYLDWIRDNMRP
Coagulation factor X, sequence (P00742 41-179 limits assumed): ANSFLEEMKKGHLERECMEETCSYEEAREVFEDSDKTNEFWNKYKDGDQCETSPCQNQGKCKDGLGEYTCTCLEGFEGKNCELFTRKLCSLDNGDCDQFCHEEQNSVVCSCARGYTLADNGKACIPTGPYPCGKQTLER
Coagulation factor X, sequence (P00742 235-488 limits assumed): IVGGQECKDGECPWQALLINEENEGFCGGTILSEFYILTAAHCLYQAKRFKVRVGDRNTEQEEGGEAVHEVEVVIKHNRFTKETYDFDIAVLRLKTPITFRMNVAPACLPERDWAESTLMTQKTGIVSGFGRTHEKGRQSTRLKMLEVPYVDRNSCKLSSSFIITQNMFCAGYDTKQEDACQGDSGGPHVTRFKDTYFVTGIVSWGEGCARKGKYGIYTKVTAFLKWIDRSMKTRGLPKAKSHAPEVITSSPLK
Vitamin K-dependent protein C, sequence (P04070 43-197 limits assumed): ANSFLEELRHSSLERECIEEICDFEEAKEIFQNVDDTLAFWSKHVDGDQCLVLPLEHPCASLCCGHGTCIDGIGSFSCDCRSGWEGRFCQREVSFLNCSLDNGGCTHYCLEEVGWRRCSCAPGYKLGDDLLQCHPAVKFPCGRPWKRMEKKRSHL
Vitamin K-dependent protein C, sequence (P04070 212-461 limits assumed): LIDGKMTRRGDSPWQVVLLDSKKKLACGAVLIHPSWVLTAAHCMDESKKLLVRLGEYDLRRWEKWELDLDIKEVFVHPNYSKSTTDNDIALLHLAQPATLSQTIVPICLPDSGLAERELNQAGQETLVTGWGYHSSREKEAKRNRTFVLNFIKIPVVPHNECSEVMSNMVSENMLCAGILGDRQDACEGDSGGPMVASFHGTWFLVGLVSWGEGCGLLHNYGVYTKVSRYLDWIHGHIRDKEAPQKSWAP

In the case of `N=C(N)c1ccc(CNC(=O)[C@H](Cc2cccc(CN)c2)NC(=O)[C@@H](Cc2ccc3ccccc3c2)NS(=O)(=O)Cc2ccccc2)cc1`, the Ki was found to be 0.1 nM on Plasma kallikrein [1] and 1.1 nM at Plasminogen [2].
Turning to `O=c1cc(C2CCNCC2)n2nc3ccc(F)c(-c4ccccc4)c3c2[nH]1`, in the test on Plasma, the IC50 came out at 11 nM.
With `CC(C)(C)NC(=O)Nc1cccc2nn3c(C4CCNCC4)cc(=O)[nH]c3c12`, the IC50 in the test on Plasma came to 9.1 nM.
In the case of `O=C(c1cnn2c(C3CCNCC3)cc(=O)[nH]c12)C1CC1`, the IC50 in the test on Plasma stood at 8 nM.
Consider `N=C(N)c1ccc(CNC(=O)[C@H](CCC2CCNCC2)NC(=O)[C@@H](CCC2CCN(C(=O)C3CC3)CC2)NS(=O)(=O)Cc2ccccc2)cc1`, for which the inhibition constant Ki (in [3]; on Coagulation factor XII; in test [4]; on Coagulation factor X; in [5]; in [6]) was more than 1000 nM each time. Besides, the Ki (in [7]; at Prothrombin) was more than 1000 nM throughout.
Consider `Cc1nc2[nH]c(C3CC3)nc2cc1-c1ccc(C[C@H](NC(=O)[C@H]2CC[C@H](CN)CC2)C(=O)Nc2cc(Cl)c3[nH]c(=O)[nH]c3c2)cc1`, for which the IC50 is 0.4 nM on Plasminogen [8] and 0.7 nM on Coagulation factor XI.
`CCCCCCCCNC(=O)[C@H](Cc1ccc(OCc2ccncc2)cc1)NC(=O)[C@H]1CC[C@H](CN)CC1` came in with an IC50 on Plasminogen [9] of 240 nM.
On to `CNC(=O)c1ccc(NC(=O)[C@H](Cc2ccc(-c3cc4[nH]cc(C(=O)O)c(=O)c4cc3C)cc2)NC(=O)[C@H]2CC[C@H](CN)CC2)cc1Cl`, for which the IC50 at Plasminogen [8] was found to be 1 nM; against Plasma kallikrein [10], 8.5 nM; against Coagulation factor XI it was 21.5 nM.
As for `NC[C@H]1CC[C@H](C(=O)N[C@@H](CCCCNC(=O)OCc2ccccc2)C(=O)COc2ccc(C(=O)c3ccccc3)cc2)CC1`, the IC50 on Plasminogen [11] came out at 200000 nM.
On the same count and under the same terms, with `NCCCCCC(=O)N[C@@H](CCCCN)C(=O)Nc1ccc(C(=O)c2ccccc2)cc1` the figure was 12000 nM.
Turning to `Cc1cc2c(=O)c(C(=O)O)c[nH]c2cc1-c1ccc(C[C@H](NC(=O)[C@H]2CC[C@H](CN)CC2)C(=O)Nc2cc(Cl)c3[nH]c(=O)[nH]c3c2)cc1`, the IC50 against Plasminogen [8] came to 2.1 nM; against Plasma kallikrein [10], 0.7 nM; at Coagulation factor XI it was 6.5 nM.
The matching figures for `Cc1nc2nc(C(C)C)[nH]c2cc1-c1ccc(C[C@H](NC(=O)[C@H]2CC[C@H](CN)CC2)C(=O)Nc2ccc(-c3nnc(C(F)(F)C(F)(F)C(=O)O)[nH]3)cc2)cc1`: 0.42 nM, 1.7 nM and less than 0.13 nM.
For `C#Cc1cccc2nn3c(C4CCNCC4)cc(=O)[nH]c3c12`, in the test with Plasma, the half-inhibitory concentration (IC50) stood at 10 nM.
On to `NCCCC[C@H](NC(=O)[C@H]1CC[C@H](CN)CC1)C(=O)NCOc1ccc(C(=O)c2ccccc2)cc1`, for which, at Plasminogen [11], the IC50 was 660000 nM.
As to `O=C(NCc1ccco1)Nc1cccc2nn3c(C4CCNCC4)cc(=O)[nH]c3c12`, in the test with Plasma, the half-inhibitory concentration (IC50) came out at 85 nM.
For the molecule `CCc1ccc(C(=O)Nc2cccc3nn4c(C5CCNCC5)cc(=O)[nH]c4c23)cc1`, the IC50 in the test with Plasma was found to be 10 nM.
For the molecule `CC[C@@H](C)[C@@H](N)C(=O)N[C@@H](Cc1ccccc1)C(=O)N[C@@H](CCCCN)C(=O)Nc1ccc(C(=O)c2ccccc2)cc1`, the IC50 at Plasminogen [11] came out at 69000 nM.
Turning to `Cc1cc2nc(C(C)C)[nH]c2cc1-c1ccc(C[C@H](NC(=O)[C@H]2CC[C@H](CN)CC2)C(=O)Nc2ccc(-c3nnc(C(F)(F)C(F)(F)C(=O)O)[nH]3)cc2)cc1`, the half-inhibitory concentration (IC50) at Plasminogen [8] stood at 0.87 nM; against Plasma kallikrein [10], 7.2 nM; against Coagulation factor XI it was 0.34 nM.
On to `CCCCCCCCNC(=O)[C@H](Cc1ccc(OCc2ccc3ccccc3n2)cc1)NC(=O)[C@H]1CC[C@H](CN)CC1`, for which the half-maximal inhibitory concentration (IC50) at Plasminogen [9] is 380 nM.
Take `N=C(N)c1ccc(CNC(=O)[C@H](CCc2ccccc2)NC(=O)[C@@H](CO)NS(=O)(=O)Cc2ccccc2)cc1`: the inhibition constant Ki on Plasminogen [12] was determined as 36 nM; in test [13], 28 nM.
On to `CCC(C)C(=O)c1cnn2c(C3CCNCC3)cc(=O)[nH]c12` (stereo not drawn), for which the concentration for half-maximal inhibition (IC50) with Plasma turned out to be 8 nM.
Turning to `CCCc1noc(-c2c(C)nn3c(C4CCNCC4)cc(=O)[nH]c23)n1`, the IC50 in the test with Plasma came to 6 nM.
In the case of `N=C(N)c1ccc(CNC(=O)[C@H](CCc2ccncc2)NC(=O)[C@@H](CCCc2ccccc2)NS(=O)(=O)Cc2ccccc2)cc1`, the inhibition constant Ki is 0.6 nM on Plasma kallikrein [1] and 0.48 nM at Plasminogen [2].
With `Cc1cc(Cl)c2c(c1)nn1c(C3CCNCC3)cc(=O)[nH]c21`, in the test on Plasma, the 50% inhibitory concentration (IC50) was determined as 11 nM.
